Results reported in patent publication US11466027B2, “Modulators of the NMDA receptor” (H. Lundbeck A/S, priority 2019, dated 2022).
Where two headings read alike, the source gives them in different places.

Legend:
[1] = In vivo exposure (brain disposition) after intravenous bolus injection; design: species or system male Sprague Dawley rats; conditions: male, Sprague-Dawley, rat, 2 mg/kg intravenous bolus, 30 min post dose
Method: Brain disposition of test compound was evaluated in male Sprague Dawley rats (standard body weight range). Briefly, discrete (nominal dose: 2 mg/kg, 2 ml/kg) or cassetted (nominal dose: 1 mg/kg/compound, 2 ml/kg) test compounds were administered by intravenous bolus injection (formulated in 10% hydroxypropyl-β-cyclodextrin or 10-20% Captisol, pH=3).
Serial blood samples were collected from a lateral tail vein at designated time points (n=3 per time point) then rats were put under deep isoflurane induced anesthesia prior to removal of brains (n=3 per time point). Blood was collected into K3-EDTA-coated tubes and the samples were gently turned upside-down to ensure a homogenous sample. The tubes were centrifuged at 3300×g for 10 min. at max 4° C. and plasma samples were transferred to Micronic tubes. […]
Seven calibration standards and three QC samples were prepared in plasma and brain homogenate, respectively, in the concentration range 10-10000 ng/mL. […] Study samples with expected concentration above upper limit of quantification were diluted with blank matrix. […]
Samples were analyzed using an AB Sciex API4000 triple quadrupole (TQ) mass spectrometer operated in positive and negative electrospray ionization and MS/MS mode (multiple reaction monitoring, MRM). […] Quantification was performed by linear regression, 1/x2 weighting.

[2] = test system: High Frequency Oscillations (HFO) in the nucleus accumbens; experiment: Resting state electroencephalography (rsEEG) in rats; type: in vivo; conditions: rat, 20 mg/kg, vs 10% captisol, FIG. 1
Method: On the day of surgery, rats (270-300 g) were anesthetized with a 0.25 ml/100 g subcutaneous (SC) injection of 1:1 hypnorm/Dormicum and mounted in a stereotaxic frame (David Kopf Instruments, Tujunga, Calif., USA) with blunt ear bars. Marcain (0.2 ml SC) was injected under the scalp, and gel (Neutral Opthta Eye Gel) put on the eyes to prevent the mucous membrane drying out. Holes were burred in the skull to allow for placement of three depth electrodes (E363-series; PlasticsOne, Roanoke, Va., USA) in medial prefrontal cortex (mPFC) (AP: 3.0 mm from the bregma suture, ML: −0.7 mm from the sagittal suture and DV: 3.0 mm from the dura), Nucleus accumbens (NAc): (AP+1.6 mm from the bregma suture, ML: −1.0 mm from the sagittal suture, DV: −6.7 mm from the dura) and thalamus (AP: −2.8 mm from the bregma suture, ML: +0.7 mm from the sagittal suture and DV: 4.4 mm from the dura) and three screw electrodes above the auditory cortex (A1) (AP: −4.8 mm from the bregma suture, ML: +6.4 mm from the sagittal suture), a reference electrode (AP: +8.0 mm and ML: −2.0 mm), and a ground electrode (AP: −5 mm, ML: +5 mm). […] Animal bodyweights were recorded daily. […]
Rats were handled daily and habituated to recording box the week before recording sessions. […] The analysis of the locomotor behaviour was based on the recorded accelerometer signal. […]

[3] = Microdialysis studies in rats (ventral hippocampus); type: in vivo, Male Sprague-Dawley rats; conditions: 30 mg/kg subcutaneously, FIG. 2
Method: Male Sprague-Dawley rats, initially weighing 275-300 g, were used. The animals were housed under a 12-hr light/dark cycle under controlled conditions for regular in-door temperature (21±2° C.) and humidity (55±5%) with food and tap water available ad libitum.
Rats were anaesthetised with hypnorm/dormicum (2 ml/kg) and intracerebral guide cannulas.
(CMA/12) were stereotaxically implanted into the brain, aiming to position the dialysis probe tip in the ventral hippocampus (co-ordinates: 5.6 mm posterior to bregma, lateral −4.8 mm, 7.0 mm ventral to dura. Anchor screws and acrylic cement were used for fixation of the guide cannulas. The body temperature of the animals was monitored by rectal probe and maintained at 37° C. The rats were allowed to recover from surgery for 2 days, housed singly in cages.
On the day of the experiment a microdialysis probe (CMA/12, 0.5 mm diameter, 3 mm length) was inserted through the guide cannula. The probe was connected via a dual channel swivel to a microinjection pump. Perfusion of the microdialysis probe with filtered Ringer solution (145 mm NaCl, 3 mM KCl, 1 mM MgCl2, 1.2 mM CaCl2) was begun shortly before insertion of the probe into the brain and continued for the duration of the experiment at a constant flow rate of 1 μl/min. After 180 min of stabilisation, the experiments were initiated. […]

[4] = target: NR1s1s2 (ligand binding domains of the NMDA receptor), glycine site (Rattus norvegicus, UniProt P35439); experiment: Scintillation Proximity Assay (SPA), displacement of [3H]-MDL-105,519; conditions: radioligand used in SPA
Text: Scintillation Proximity Assay (SPA):
Normalized data are used to calculate Ki values.

Row | concentration at 30 min ([1]; brain, read-out: Total Brain concentration (ng/mL) 30 min post dose) | concentration at 30 min ([1]; plasma, read-out: Total Plasma concentration (ng/mL) 30 min post dose) | Extracellular levels in the rat ventral hippocampus after systemic administration [3] | Compound | Effect in rsEEG (High Frequency Oscillations in the nucleus accumbens) compared to vehicle [2] | Kd [4]
1 | 8.4 ng/mL | 270 ng/mL | considerable extracellular levels | Cc1ccnc2cc(C(=O)NC[C@@H](N)C(=O)O)sc12 [Compound 1e, (R)-2-amino-3-[(7-methylthieno[3,2-b]pyridine-2-carbonyl)amino]propanoic acid] | clear effect | –
2 | – | – | – | O=C(O)C(=Cc1c(C(=O)O)[nH]c2cc(Cl)cc(Cl)c12)c1ccccc1 [[^3H]-MDL-105,519] | – | 1.3 nM
